Test results published in EP0190496A2, “Piperidine derivatives having a gastro-intestinal activity” (BEECHAM GROUP PLC, priority 1984, dated 1986).
Structures can show the parent of a compound that is named as a salt.

System: Cold restraint stress - induced gastric erosions
Test: Cold restraint stress-induced gastric erosions (antiulcer test)
Type: in vivo, Male Wistar rats
Settings: Oral Dose 25 µmol/kg in 0.5% methylcellulose, 30 min before 2.5 hours at 4°C in restraint; mucosal damage scored visually; * p<0.05, ** p<0.01 (Wilcoxon)
Procedure: Male Wistar rats, 175-225g bodyweight are used. Forty eight hours prior to testing, animals are placed in mesh-bottomed cages with 10-12 animals per cage. Twenty-four hours prior to testing, animals are placed in the dark at a temperature of l7 °C. Sixteen hours prior to testing, food is removed from the cages. Drugs are made up in 0.5% methylcellulose, and adminstered at a volume of 1.0ml/100g bodyweight. Eight rats per group are used, with usually 1 control group and 2 test groups. Animals are placed in Bollman type restraining cages and arranged in a vertical position. Thirty minutes after dosing the animals are placed in an ambient temperature of 4 °C for 2.5 hours. At the end of this time the rats are sacrificed, the stomachs removed, cut open and pinned out on cork boards. Mucosal damage is assessed visually and scored on a subjective scale. Statistical differences between control and test groups are assessed using a Wilcoxon Ranking Test.

Compound | % Inhibition of gastric erosions
COc1ccccc1[C@@H]1CCN(Cc2ccccc2)C[C@H]1COc1ccc2c(c1)OCO2 (racemic) [Example 2, (±)trans 1-Benzyl-4-(2'-methoxyphenyl)-3-(3',4'-methylenedioxyphenoxymethyl)piperidine hydrochloride] | 58* %
Fc1ccc([C@@H]2CCN(Cc3ccccc3)C[C@H]2COc2ccc3c(c2)OCO3)cc1 (single isomer, unassigned) [Example 1, (-)-trans-l-Benzyl-4-(4'-fluorophenyl)-3-(3',4'-methylenedioxyphenoxymethyl)piperidine hydrochloride] | 53** %

System: ethanol-induced gastric mucosal erosive damage in the rat
Test: Inhibition of ethanol-induced gastric mucosal erosive damage (antiulcer test)
Type: in vivo
Settings: Oral Dose 25 µmol/kg, 90 min before 1 ml/rat p.o. absolute ethanol; stomach scored 10 min later; * p<0.05, ** p<0.01, *** p<0.001 (Mann-Whitney U-test)
Description: The object of the experiment was to test the ability of drugs to inhibit a state of gastric submucosal haemorrhage induced by absolute ethanol in the conscious rat.
The procedure used was as follows. Male rats, preferably Wistars, were fasted overnight in wire mesh bottom cages, so as to prevent copraphagy. Water was allowed ad. libitum. Six or seven rats per cage were regarded as suitable, and the weight range of the rats used was between 175 and 300g. Water was removed one hour prior to treatment. The rats were then randomly allocated to their respective treatment groups, so that there were no less than five rats per group. One control group was always included.
Each rat was pre-dosed with lml/100g of control or test drug, dissolved or suspended in 0.5% methyl cellulose or 1% Tween 80 in water, via an oral dosing needle. Ninety minutes later each rat was dosed with lml/rat p.o. of absolute ethanol. Ten minutes after the absolute ethanol, the rats were killed by an intracardiac injection of Expiral^*. The stomachs were excised, cut open along the greater curvature to expose the mucosal surface, washed in tap water to remove debris, then stretched on a cork board for examination.
A subjective macroscopic examination of the stomach was carried out with a damage score being allocated to each stomach. Two observers were usually used, one of whom scored the results in a 'blinded' manner. The results were then analysed by the Mann-Whitney U-test, with p<0.05 being regarded as statistically significant.
^*(sodium pentobarbitone solution 200mg/ml)

Compound | % Inhibition of gastric erosions
(+) cis-l-(4'-Fluorobenzyl)-4-(4'-fluorophenyl)-3-(3', 4'-methylenedioxyphenoxymethyl)piperidine hydrochloride [Example 12] | 84.9** %
(+)cis-1-Benzyl-4-(4'-fluorophenyl)3-(3',4'-methylene- dioxyphenoxymethyl)piperidine hydrochloride [Example 7] | 63.1** %
(-) cis-l-(4'-Fluorobenzyl)-4-(4'-fluorophenyl)-3-(3', 4'-methylenedioxyphenoxymethyl)piperidine hydrochloride [Example 13] | 46** %
(-)cis-l-Benzyl-4-(4'-fluorophenyl)-3-(3',4'-methylene- dioxyphenoxymethyl)piperidine hydrochloride [Example 8] | 46.8* %

Same assay, conditions: Oral Dose 25 µmol/kg, 90 min before 1 ml/rat p.o. absolute ethanol; stomach scored 10 min later; * p<0.05, ** p<0.01, *** p<0.001 (Mann-Whitney U-test); read-out: % Inhibition of gastric erosions

Compound | inhibition in vivo at 25 µmol/kg
COc1ccccc1[C@@H]1CCN(Cc2ccccc2)C[C@H]1COc1ccc2c(c1)OCO2 (racemic) [Example 2, (±)trans 1-Benzyl-4-(2'-methoxyphenyl)-3-(3',4'-methylenedioxyphenoxymethyl)piperidine hydrochloride] | 47.7%
Fc1ccc(C2=CCN(Cc3ccccc3)CC2COc2ccc3c(c2)OCO3)cc1 (racemic) [Example 11, (±)-1-Benzyl-4-(4'-fluorophenyl)-3-(3,4-methylenedioxy-phenoxymethyl)-1,2,3,6-tetrahydropyridine hydrochloride] | 26%
Cc1ccccc1[C@@H]1CCN(Cc2ccccc2)C[C@H]1COc1ccc2c(c1)OCO2 (racemic) [Example 17, (±)-trans-1-Benzyl-3-(3',4'-methylenedioxyphenoxy-methyl)-4-(2'-methylphenyl)piperidine hydrochloride] | 31%
Fc1ccc([C@@H]2CCN(Cc3ccccc3)C[C@H]2COc2ccc3c(c2)OCO3)cc1 (single isomer, unassigned) [Example 1, (-)-trans-l-Benzyl-4-(4'-fluorophenyl)-3-(3',4'-methylenedioxyphenoxymethyl)piperidine hydrochloride] | 66%
Fc1ccc(CN2CC[C@@H](c3ccc(F)cc3)[C@H](COc3ccc4c(c3)OCO4)C2)cc1 (single isomer, unassigned) [Example 9, (-) trans-l-(4'-fluorobenzyl)-4-(4'-fluorophenyl)-3-(3',4'-methylenedioxyphenoxymethyl)piperidine hydrochloride] | 71%
Fc1ccc([C@@H]2CCN(Cc3ccccc3F)C[C@H]2COc2ccc3c(c2)OCO3)cc1 (single isomer, unassigned) [Example 14, (-) trans-l-(2'-Fluorobenzyl)-4-(4'-fluorophenyl)-3-(3',4-methylenedioxyphenoxymethyl)piperidine hydrochloride] | 39%
c1ccc(CN2CC[C@@H](c3ccccc3)[C@H](COc3ccc4c(c3)OCO4)C2)cc1 (single isomer, unassigned) [Example 15, (-) trans-l-Benzyl-3-(3',4'-methylenedioxyphenoxy-methyl)-4-phenylpiperidine hydrochloride] | 67%
Fc1ccc(CN2CC[C@@H](c3ccccc3)[C@H](COc3ccc4c(c3)OCO4)C2)cc1 (single isomer, unassigned) [Example 16, (-) trans-l-(4'-Fluorobenzyl)-3-(3',4'-methylenedioxy-phenoxymethyl)-4-phenylpiperidine hydrochloride] | 83%
Fc1ccc(C2CCN(Cc3ccccc3)CC2COc2ccc3c(c2)OCO3)cc1 (single isomer, unassigned; (+)) [Example 5, (+)trans-l-Benzyl-4-(4'-fluorophenyl)-3-(3',4'-methylenedioxyphenoxymethyl)piperidine hydrochloride] | 30%

Same assay, conditions: Rattus norvegicus, po, read-out: % Inhibition of gastric erosions

Compound | inhibition in vivo at 25 µmol/kg
Cc1ccc(OC[C@@H]2CN(Cc3ccccc3)CC[C@H]2c2ccc(F)cc2)cc1 (racemic) [Example 18, (±)-trans-1-Benzyl-4-(4'-fluorophenyl)-3-(4'-methylphenoxymethyl)piperidine maleate] | 21%
Cc1ccc(OC[C@@H]2CN(Cc3ccc(F)cc3)CC[C@H]2c2ccc(F)cc2)cc1 (racemic) [Example 19, (±)-trans-1-(4'-Fluorobenzyl)-4-(4'-fluorophenyl)-3-(4'-methylphenoxymethyl)piperidine maleate] | 69%
Fc1ccc(CN2CC[C@@H](c3ccc(F)cc3)[C@H](COc3ccccc3)C2)cc1 (racemic) [Example 20, (±)-trans-1-(4'-Fluorobenzyl)-4-(4'-fluorophenyl)-3-phenoxymethylpiperidine maleate] | 70%
Fc1ccc(OC[C@@H]2CN(Cc3ccccc3)CC[C@H]2c2ccc(F)cc2)cc1 (racemic) [Example 21, (±)-trans-1-Benzyl-3-(4'-fluorophenoxymethyl)-4-(4'-fluorophenyl)piperidine maleate] | 27%
Fc1ccc(CN2CC[C@@H](c3ccc(F)cc3)[C@H](COc3ccc(F)cc3)C2)cc1 (racemic) [Example 22, (±)-trans-1-(4'-Fluorobenzyl)-3-(4'-fluorophenoxy-methyl)-4-(4'-fluorophenyl)piperidine maleate] | 53%

System: Heidenhain pouch of the dog
Test: Gastro-intestinal motility: intraluminal pressure in the Heidenhain pouch
Type: in vivo
Settings: dose of 0.5mg/kg i.v., conscious fasted dog, chronic Heidenhain pouch
Procedure: Pressure changes were recorded via a saline filled catheter inserted, with airtight closure, into the fistula of a chronic Heidenhain pouch of the previously fasted and lightly restrained conscious dog. The catheter was connected to a physiological pressure transducer and pressure changes recorded on a hot wire pen recorder. Compounds were administered when the motility was in a phase of relatively low activity and the dose range determined which induced an increase in the amplitude of rhythmical contractions for a period of at least 4-5 minutes.

Compound | increase in the amplitude of rhythmical contractions for a period of at least 4-5 minutes
Fc1ccc([C@@H]2CCN(Cc3ccccc3)C[C@H]2COc2ccc3c(c2)OCO3)cc1 (single isomer, unassigned) [Example 1, (-)-trans-l-Benzyl-4-(4'-fluorophenyl)-3-(3',4'-methylenedioxyphenoxymethyl)piperidine hydrochloride] | active
